# Laboratory results published in patent US9050353B2, “Use of icariin and epimedium flavonoids containing icariin to treat diseases associated with myelin sheath lesion” (Xuanwu Hospital of Capital Medical University, priority 2010, dated 2015).
# Columns and labels:
# Malondialdehyde (MDA) = assay: MDA content of cerebral cortex, biochemical kit, EAE rats; format: in vivo; conditions: positive control drug, dose not given
# Method: (§1) Preparation of rat model and administration: experimental autoimmune encephalomyelitis (EAE) model is an important tool for studying various human demyelinating diseases of nervous system. In the example, the preparation of EAE rat model was performed by multipoint immunizing female Lewis rats subcutaneously at tail root with a homogenate of spinal cord and cerebral gray matter of Guinea pig as well as complete Freund's adjuvant after emulsification. They were intragastrically administered with Epimedium flavanoids for 3 weeks.
# (§2) Experimental objective: the lipid peroxidation between oxygen free radicals and unsaturated fatty acids of cell membranes and organelle membranes results in the damage, degradation, denaturation and dysfunction of membrane phospholipids. Malondialdehyde (MDA) is a metabolic product of lipid peroxidation, and the increase of MDA indicates the enhancement of lipid peroxidation, which may lead to damage of nerve cells and myelin sheath. Superoxide dismutase (SOD) can scavenge superoxide anions and is an important antioxidase in vivo. In this experiment, SOD activity and MDA content of brain tissues in EAE rat model were measured by biochemistry method, and the effects of Epimedium flavanoids on changes thereof were observed. […]
# [1] = system: experimental autoimmune encephalomyelitis (EAE) rat model; assay: Nervous function damage score in EAE rat model; format: in vivo, Lewis rats; conditions: EAE rats, peak of attack; positive control drug, dose not given; scale 0-6
# Method: as §1
# Nervous function test method: the ethological changes of rats were observed by two experimenters using blind method every day. Nervous function damage scoring standard: 0 score, absence of symptom; 1 score, decrease of tail tension, visible evident slight gait awkward; 2 score, double hind limbs weak, walk difficult; 3 score, double hind limbs paralysis; 4 score, double hind limbs paralysis and fore limbs weak; 5 score, four limbs paralysis; 6 score, near death or died.
# [2] = system: peripheral blood CD4+ and CD8+ T cells; assay: Peripheral blood T cell subgroup by flow cytometer, EAE mice; format: in vivo; conditions: positive control drug, dose not given
# Method: (§3) Preparation of mice model and administration: experimental autoimmune encephalomyelitis (EAE) mice model is an important tool for studying various human demyelinating diseases of nervous system. In the present experiment, the preparation of EAE mice model was performed by immunizing female C57BL/6J mice with myelin sheath oligodendroglial cell surface glycoprotein MOG35-55. That is, the mice were subcutaneously injected at dorsal part of spinal column with 0.2 mL of MOG35-55 antigen elixir, and 0.2 ml of bordetella pertussis solution was intraperitoneally injected at the time of immunization injection and 48 h thereafter, respectively. Icariin was intragastrically administered after the last injection of bordetella pertussis solution, for consecutive 3 weeks.
# Experimental objective: one common feature of autoimmune diseases is the […]. In this experiment, the numbers of CD4+ and CD8+ cells in peripheral blood T cell subgroup of EAE mice mode were measured by flow cytometer (FACS), and the ratio of them was obtained; and the effects of icariin on these changes were observed.
# Experimental method: mice were anesthetized with pentobarbital sodium, blood sample was taken from abdominal aorta, stood at room temperature for 2 h, centrifuged at 3000 rpm for 20 min, and cells were taken, added with anti-CD4+, CD8+ T cell antibodies with different markers, then the percentages of CD4+, CD8+ cells in T lymphocytes were measured by flow cytometer, and the CD4+/CD8+ T cells ratio was calculated.
# [3] = system: Nerve growth factors (NGF); assay: NGF of spinal cord lumbar intumescentia by immunohistochemical method, EAE rats; format: in vivo; conditions: positive control drug, dose not given
# Method: as §1
# (§4) Experimental objective: neurotrophic factors are important substances for constituting nerve regeneration microenvironment. Nerve growth factors (NGF) are important neurotrophic factors, can promote the regeneration and plerosis of nerve cells and myelin sheath. In this experiment, NGF content of spinal cord lumbar intumescentia in EAE rat model was measured by immunohistochemical method, and the effects of Epimedium flavanoids on the content was observed.
# (§5) Experimental method: the rats were anesthetized with 10% chloral hydrate, fixed by perfusion of 4% paraformaldehyde, spinal cord tissues were taken for frozen section. Incubated with NGF primary antibody, added with corresponding secondary antibody and third antibody, DAB colorated, observed under microscope, and pictures were analyzed using Image Pro plus5.0 software.
# [4] = system: Superoxide dismutase (SOD); assay: SOD activity of cerebral cortex, biochemical kit, EAE rats; format: in vivo; conditions: positive control drug, dose not given
# Method: as §1, §2
# [5] = system: Brain-derived neurotrophic factor (BDNF); assay: BDNF of spinal cord lumbar intumescentia by immunohistochemical method, EAE rats; format: in vivo; conditions: positive control drug, dose not given
# Method: as §1
# as §4, with “Brain-derived neurotrophic factor (BDNF) is an” for “Nerve growth factors (NGF) are”, “factor,” for “factors,”, “of” for “of nerve cells and”, “BDNF” for “NGF”
# as §5, with “BDNF” for “NGF”
# [6] = system: myelin basic protein (MBP); assay: Spinal cord MBP by Western blot, EAE mice; format: in vivo; conditions: positive control drug, dose not given
# Method: as §3
# Experimental objective: myelin sheath is formed with prominences of oligodendroglial cells. CNPase, myelin basic protein (MBP) are marker proteins of mature oligodendroglial cells. The present experiment was to observe the expression of CNPase and MBP to represent the content of oligodendroglial cells in spinal cord of EAE model mice by Western blot method; and to study the effects of icariin on it.
# Experimental method: the mice were anesthetized and sacrificed, fresh spinal cord was taken on ice, total protein was extracted by cleavage on ice, to prepare Western blot sample, added separately with CNPase, MBP primary antibodies and incubated, added with corresponding secondary antibodies, ECL colorated, Kodak film exposed. Pictures were analyzed with Image J software and standardized with β-actin.
# IL-1β = IL-1β of spinal cord lumbar intumescentia by immunohistochemical method, EAE rats; format: in vivo; conditions: positive control drug, dose not given
# Method: as §1
# Experimental objective: interleukin 1β (IL-1β) is an important inflammatory cytokines, and has promoting effects on inflammatory reactions. This experiment used immunohistochemical method to measure the content of IL-1β in spinal cord lumbar intumescentia of EAE model group rat, and observed the effects of Epimedium flavanoids on the content.
# Experimental method: rats were anesthetized with 10% chloral hydrate, fixed by perfusion of 4% paraformaldehyde, spinal cord tissue was taken for making frozen section. Incubated with IL-1β primary antibody, added with corresponding secondary antibody, third antibody, DAB developed, observed under microscope. Pictures were analyzed by Image Pro plus 5.0 software.
structure (smiles),measurement,setting,value
CC(=O)OCC(=O)[C@@]1(O)CC[C@H]2[C@@H]3CCC4=CC(=O)C=C[C@]4(C)[C@H]3C(=O)C[C@@]21C [prednisone acetate],MDA content,Malondialdehyde (MDA),1.03 ± 0.09 nmol/mg protein
same,Nervous function damage score,[1],0.83 ± 0.48
same,CD4 + T cells,[2],30.45 ± 8.77%
same,CD4 +/CD8 + ratio,[2],0.52 ± 0.23
same,CD8 + T cells,[2],60.62 ± 5.58%
same,NGF positive cell Accumulative optical density,[3],11.25 ± 1.67 ×10^5
same,SOD activity,[4],134.5 ± 5.1 U/mg protein
same,integrated optical density of BDNF positive cell,[5],3.64 ± 0.23 ×10^5
same,total area of BDNF positive cell,[5],9.43 ± 1.12 ×10^5
same,MBP/actin Integration grey level,[6],1.05 ± 0.11
same,IL-1β Accumulative optical density,IL-1β,115.5 ± 8.6 ×10^3
same,IL-1β Positive cell number,IL-1β,672 ± 48
